target: Recombinant GMPPNP-loaded KRAS G12C (KRAS-G12C(ON), active form) (Homo sapiens, UniProt P01116, G12C); experiment: KRAS G12C RAF Disruption Assay (HTRF); assay type: biochemical; conditions: GMPPNP-loaded KRAS G12C 5 nM, GST-RAF1 RBD 9 nM, values given in μM, read-out: KRASG12C RAF Disruption Assay (IC50)
Experimental: This is a functional assay that measures activity of compounds against […]., the active form of KRAS G12C. Recombinant GMPPNP-loaded KRAS G12C (5 nM) was treated with compound at room temperature for 20 minutes in assay buffer (50 mM Tris pH 7.5, 100 mM NaCl, 1 mM MgCl2, 1 mM DTT, 100 μg/ml BSA). Recombinant GST-RAF1 RBD (9 nM) was added, and the reaction mixture was incubated for 20 minutes. SA-Tb (0.25 nM) was added, and the reaction mixture was incubated for 3 hours. HTRF signal was measured (PerkinElmer Envision), the signal ratio (λem 520/λem 495) was calculated, and IC50 values were calculated from the dose-response curve.

Chain of Recombinant GMPPNP-loaded KRAS G12C (KRAS-G12C(ON), active form) (P01116 1-188 isoform P01116-2 G12C): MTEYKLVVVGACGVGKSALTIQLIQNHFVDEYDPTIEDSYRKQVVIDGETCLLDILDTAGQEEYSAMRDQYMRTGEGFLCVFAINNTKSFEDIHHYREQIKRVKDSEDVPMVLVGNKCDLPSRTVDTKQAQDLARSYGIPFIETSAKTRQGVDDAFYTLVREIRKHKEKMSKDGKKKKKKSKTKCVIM

Row | Compound | IC50 [µM]
1 | C[C@H]1CN(C(=O)/C(F)=C/c2ncccn2)CCN1c1nc(OC[C@@H]2CCCN2C)nc2c(F)c(-c3cccc4cccc(Cl)c34)c(Cl)cc12 [Example 2, (Z)-1-((3S)-4-(6-chloro-7-(8-chloronaphthalen-1-yl)-8-fluoro-2-(((S)-1-methylpyrrolidin-2-yl)methoxy)quinazolin-4-yl)-3-methylpiperazin-1-yl)-2-fluoro-3-(pyrimidin-2-yl)prop-2-en-1-one] | 61.3
2 | Cc1cc(N)nc(-c2c(Cl)cc3c(N4CCC5(CN(C(=O)/C(F)=C/c6nccs6)C5)C4)nc(OC[C@@]45CCCN4C[C@H](F)C5)nc3c2F)c1C(F)(F)F (atropisomer, axis not shown; (M)) [Example 9, (Z)-1-(6-((7M)-7-(6-amino-4-methyl-3-(trifluoromethyl)pyridin-2-yl)-6-chloro-8-fluoro-2-(((2R,7aS)-2-fluorotetrahydro-1H-pyrrolizin-7a(5H)-yl)methoxy)quinazolin-4-yl)-2,6-diazaspiro[3.4]octan-2-yl)-2-fluoro-3-(thiazol-2-yl)prop-2-en-1-one] | 1.9
3 | Cc1cc(N)nc(-c2c(Cl)cc3c(N4CC5CCC(C4)N5C(=O)/C(F)=C/c4ccccn4)nc(OC[C@@]45CCCN4C[C@H](F)C5)nc3c2F)c1C(F)(F)F [Example 7, (Z)-1-((1R,5S)-3-((7M)-7-(6-amino-4-methyl-3-(trifluoromethyl)pyridin-2-yl)-6-chloro-8-fluoro-2-(((2R,7aS)-2-fluorotetrahydro-1H-pyrrolizin-7a(5H)-yl)methoxy)quinazolin-4-yl)-3,8-diazabicyclo[3.2.1]octan-8-yl)-2-fluoro-3-(pyridin-2-yl)prop-2-en-1-one] | 2
4 | Cc1cc(N)nc(-c2c(Cl)cc3c(N4CCC5C(CCN5C(=O)/C(F)=C/c5nccs5)C4)nc(OC[C@]45CCCN4C[C@H](F)C5)nc3c2F)c1C(F)(F)F (single isomer, unassigned) [Example 26, Isomer 1] | 3.37
5 | Cc1cc(N)nc(-c2c(Cl)cc3c(N4CC5CN(C(=O)/C(F)=C/c6nccs6)C5C4)nc(OC[C@]45CCCN4C[C@H](F)C5)nc3c2F)c1C(F)(F)F (single isomer, unassigned) [Example 15, Isomer 2] | 47.4
6 | Cc1cc(N)nc(-c2c(Cl)cc3c(N4CCN(C(=O)/C(F)=C/c5nccs5)[C@@H](CC(N)=O)C4)nc(OC[C@@H]4CCCN4C)nc3c2F)c1C(F)(F)F (atropisomer, axis not shown; (M)) [Example 47, 2-[(2S)-4-[(7M)-7-[6-amino-4-methyl-3-(trifluoromethyl)pyridin-2-yl]-6-chloro-8-fluoro-2-{[(2S)-1-methylpyrrolidin-2-yl]methoxy}quinazolin-4-yl]-1-[(2Z)-2-fluoro-3-(thiazol-2-yl)prop-2-enoyl]piperazin-2-yl]acetamide] | 1.33
7 | CN1CCC[C@H]1COc1nc(N2C[C@H]3CC[C@@H](C2)N3C(=O)/C(F)=C/c2ccccn2)c2cc(Cl)c(-c3cc(O)cc4ccccc34)c(F)c2n1 [Example 8, (Z)-1-((1R,5S)-3-(6-chloro-8-fluoro-7-(3-hydroxynaphthalen-1-yl)-2-(((S)-1-methylpyrrolidin-2-yl)methoxy)quinazolin-4-yl)-3,8-diazabicyclo[3.2.1]octan-8-yl)-2-fluoro-3-(pyridin-2-yl)prop-2-en-1-one] | 9.6
8 | Cc1cc(N)nc(-c2c(Cl)cc3c(N4C[C@]5(NC(=O)/C(F)=C/c6nccs6)CC[C@H]4C5)nc(OC[C@@H]4CCCN4C)nc3c2F)c1C(F)(F)F (atropisomer, axis not shown; (M)) [Example 48, (2Z)-N-[(1S,4S)-2-[(7M)-7-[6-amino-4-methyl-3-(trifluoromethyl)pyridin-2-yl]-6-chloro-8-fluoro-2-{[(2S)-1-methylpyrrolidin-2-yl]methoxy}quinazolin-4-yl]-2-azabicyclo[2.2.1]heptan-4-yl]-2-fluoro-3-(thiazol-2-yl)prop-2-enamide] | 2.59
9 | C#Cc1c(F)ccc2cc(O)cc(-c3c(Cl)cc4c(N5CC6CCC(C5)N6C(=O)/C(F)=C/c5ccccn5)nc(OC[C@@H]5CCCN5C)nc4c3F)c12 (single isomer, unassigned) [Example 20, Isomer 1] | 16.5

same assay, conditions: GMPPNP-loaded KRAS G12C 5 nM, GST-RAF1 RBD 9 nM, values in nM, read-out: KRASG12C RAF Disruption Assay (IC50)

Row | Compound | IC50 [µM]
10 | Cc1cc2[nH]ncc2c(-c2ccc3c(N(C)[C@@H]4CCN(C(=O)/C(F)=C/c5ccccn5)C4)nc(OC[C@@]45CCCN4C[C@H](F)C5)nc3c2F)c1Cl [Example 83, (Z)-1-((3R)-3-((7-(5-chloro-6-methyl-1H-indazol-4-yl)-8-fluoro-2-(((2R,7aS)-2-fluorotetrahydro-1H-pyrrolizin-7a(5H)-yl)methoxy)quinazolin-4-yl)(methyl)amino)pyrrolidin-1-yl)-2-fluoro-3-(pyridin-2-yl)prop-2-en-1-one] | 0.022
11 | C#Cc1c(F)ccc2cc(O)cc(-c3ccc4c(N5C[C@H]6CC[C@@H](C5)N6C(=O)/C(F)=C/c5nccs5)nc(OC[C@@H]5CCCN5C)nc4c3F)c12 [Example 21, (Z)-1-((1R,5S)-3-(7-(8-ethynyl-7-fluoro-3-hydroxynaphthalen-1-yl)-8-fluoro-2-(((S)-1-methylpyrrolidin-2-yl)methoxy)quinazolin-4-yl)-3,8-diazabicyclo[3.2.1]octan-8-yl)-2-fluoro-3-(thiazol-2-yl)prop-2-en-1-one] | 0.4
12 | N#CC[C@H]1CN(c2nc(OC[C@@]34CCCN3C[C@H](F)C4)nc3c(F)c(-c4cccc5cccc(Cl)c45)ccc23)CCN1C(=O)/C(F)=C/c1ccccn1 [Example 41, 2-((S)-4-(7-(8-chloronaphthalen-1-yl)-8-fluoro-2-(((2R,7aS)-2-fluorotetrahydro-1H-pyrrolizin-7a(5H)-yl)methoxy)quinazolin-4-yl)-1-((Z)-2-fluoro-3-(pyridin-2-yl)acryloyl)piperazin-2-yl)acetonitrile] | 0.046
13 | Cc1cc(N)nc(-c2c(Cl)cc3c(N4C[C@]5(NC(=O)/C(F)=C/c6nccs6)CC[C@H]4C5)nc(OC[C@@H]4CCCN4C)nc3c2F)c1C(F)(F)F (atropisomer, axis not shown) [Example 69, (Z)-N-((1S,4S)-2-(7M-(6-amino-4-methyl-3-(trifluoromethyl)pyridin-2-yl)-6-chloro-8-fluoro-2-(((S)-1-methylpyrrolidin-2-yl)methoxy)quinazolin-4-yl)-2-azabicyclo[2.2.1]heptan-4-yl)-2-fluoro-3-(thiazol-2-yl)acrylamide] | 2.6
14 | N#CC[C@H]1CN(c2nc(OC[C@@]34CCCN3C[C@H](F)C4)nc3c(F)c(-c4cccc5cccc(Cl)c45)ccc23)CCN1C(=O)/C(F)=C/c1nccs1 [Example 75, 2-((S)-4-(7-(8-chloronaphthalen-1-yl)-8-fluoro-2-(((2R,7aS)-2-fluorotetrahydro-1H-pyrrolizin-7a(5H)-yl)methoxy)quinazolin-4-yl)-1-((Z)-2-fluoro-3-(thiazol-2-yl)acryloyl)piperazin-2-yl)acetonitrile] | 0.06
15 | CN1CCC[C@H]1COc1nc(N2CCN(C(=O)/C(F)=C/c3ccccn3)[C@@H](CC#N)C2)c2ccc(-c3cccc4cccc(Cl)c34)c(F)c2n1 [Example 37, 2-((S)-1-((Z)-2-fluoro-3-(pyridin-2-yl)acryloyl)-4-(8-fluoro-7-(8-chloronaphthalen-1-yl)-2-(((S)-1-methylpyrrolidin-2-yl)methoxy)quinazolin-4-yl)piperazin-2-yl)acetonitrile] | 0.11
16 | COc1ccc(Cl)cc1-c1ccc2c(N3CCN(C(=O)/C(F)=C/c4cnccn4)[C@@H](CC#N)C3)nc(OC[C@@H]3CCCN3C)nc2c1F [Example 64] | 61
17 | CN1CCC[C@H]1COc1nc(N2CCN(C(=O)/C(F)=C/c3nccs3)[C@@H](CC#N)C2)c2ccc(-c3c(O)cccc3F)c(F)c2n1 [Example 56, 2-((2S)-1-((Z)-2-fluoro-3-(thiazol-2-yl)acryloyl)-4-(8-fluoro-7-(2-fluoro-6-hydroxyphenyl)-2-(((S)-1-methylpyrrolidin-2-yl)methoxy)quinazolin-4-yl)piperazin-2-yl)acetonitrile] | 0.27
18 | Cc1ccc2[nH]ncc2c1-c1ccc2c(N3CCN(C(=O)/C(F)=C/c4ncccn4)[C@@H](CC#N)C3)nc(OC[C@@H]3CCCN3C)nc2c1F [Example 52, 2-((2S)-1-((Z)-2-fluoro-3-(pyrimidin-2-yl)acryloyl)-4-(8-fluoro-7-(5-methyl-1H-indazol-4-yl)-2-(((S)-1-methylpyrrolidin-2-yl)methoxy)quinazolin-4-yl)piperazin-2-yl)acetonitrile] | 0.45
19 | CN1CCC[C@H]1COc1nc(N2CCN(C(=O)/C(F)=C/c3cccnn3)[C@@H](CC#N)C2)c2ccc(-c3c(O)cccc3F)c(F)c2n1 [Example 57] | 0.13
20 | CN1CCC[C@H]1COc1nc(N2CCN(C(=O)/C(F)=C/c3ccccn3)[C@@H](CC#N)C2)c2ccc(-c3cc(O)cc4ccccc34)c(F)c2n1 [Example 24, 2-((S)-1-((Z)-2-fluoro-3-(pyridin-2-yl)acryloyl)-4-(8-fluoro-7-(3-hydroxynaphthalen-1-yl)-2-(((S)-1-methylpyrrolidin-2-yl)methoxy)quinazolin-4-yl)piperazin-2-yl)acetonitrile] | 0.022
21 | N#CC[C@H]1CN(c2nc(OC[C@@]34CCCN3C[C@H](F)C4)nc3c(F)c(-c4cccc5cccc(Cl)c45)ccc23)CCN1C(=O)/C(F)=C/c1ncccn1 [Example 42, 2-((S)-4-(7-(8-chloronaphthalen-1-yl)-8-fluoro-2-(((2R,7aS)-2-fluorotetrahydro-1H-pyrrolizin-7a(5H)-yl)methoxy)quinazolin-4-yl)-1-((Z)-2-fluoro-3-(pyrimidin-2-yl)acryloyl)piperazin-2-yl)acetonitrile] | 0.088

Reference: patent US20250263424A1, “KRAS INHIBITORS” (Bristol-Myers Squibb Company, priority 2022, published 2025)
